{"source": "patent US5208220A", "about": "“Composition and treatment with biologically active peptides and antibiotics which inhibit DNA gyrase” (priority 1991, dated 1993)", "format_in_all_cases": "cell-based", "conditions_in_all_cases": "compound alone", "key": {"[1]": {"tested_on": "P.aeruginosa strain 107 (which is gentamicin - resistant)", "assay": "MIC in trypticase soy broth, test wells (Example 1)", "procedure": "(§1) Approximately 1-5×10^5 colony forming units (CFU's) of P.aeruginosa strain 27853 or of P.aeruginosa strain 107 (which is gentamicin - resistant) dispersed in 100 ul of trypticase soy broth (TSB) were added to each of a series of test wells. […] For purposes of this example, Peptide 1 is amide-terminated Magainin II, Peptide 2 is of the following structural formula: […]"}, "[2]": {"tested_on": "P.aeruginosa strain 27853", "assay": "MIC in trypticase soy broth, test wells (Example 1)", "procedure": "as §1"}, "[3]": {"tested_on": "isolates of strain MR-PSA (multiply resistant) Pseudomonas aeruginosa", "assay": "MIC in microtiter plates, Mueller-Hinton broth (Examples 2 and 3)", "procedure": "For Examples 2 and 4, microorganisms employed in the assays were grown according to the procedure described in Stutman, et al., Antimicrobial Agents in Chemotherapy, Vol. 34, July 1990.\nThe final assays were then conducted in microtiter plates containing Mueller-Hinton broth 10^5 organisms were added to each well.\nThe minimal inhibitory concentrations, (MIC's), according to the procedure of Example 2, were tested against various isolates of strain MR-PSA, of Pseudomonas aeruginosa, except that Peptide 4 replaces Peptide 1."}}, "note": "Where no end group is shown, it is not given here."}
{"substance": "GIGKFLHSAKKFGKAFVGEIMNS-NH2 [Peptide 1]", "values": [{"measurement": "MIC", "setting": "[1]", "value": "> 32", "unit": "µg/mL"}, {"measurement": "MIC", "setting": "[2]", "value": "> 32", "unit": "µg/mL"}, {"measurement": "MIC", "setting": "[3]; Table 2, MR-PSA isolate 1", "value": 32, "unit": "µg/mL"}, {"measurement": "MIC", "setting": "[3]; Table 2, MR-PSA isolate 2", "value": "> 256", "unit": "µg/mL"}, {"measurement": "MIC", "setting": "[3]; Table 2, MR-PSA isolate 3", "value": 32, "unit": "µg/mL"}, {"measurement": "MIC", "setting": "[3]; Table 2, MR-PSA isolate 4", "value": 256, "unit": "µg/mL"}]}
